Measured values from US5942521A, “Quinolinone derivative and anti-allergic agent with said quinolinone derivative as the active ingredient” (Dainippon Ink and Chemicals, Inc., priority 1996, dated 1999).

How the values were obtained:
[1] = tested on: passive cutaneous anaphylaxis (PCA) reaction; test: Effect on homologous passive cutaneous anaphylaxis (PCA) reaction in rats; assay type: in vivo; details: Rattus norvegicus, po, 0.5 h, male wistar rats; for inhibition in vivo at 100 mg/kg: test compounds, 100 mg/kg p.o., 1 hour before induction of anaphylaxis
Experimental: Effect on homologous passive cutaneous anaphylaxis (PCA) reaction in rats
This experimental animal model is caused by immediate type allergic reaction, namely, antigen-antibody reaction. In the following, the method of this pharmacological test will be explained.
Method: Male wistar rats (9 weeks old) were intradermally administered 0.05 ml of anti-serum against dinitrophenylated ascaris (DNP-As) into two sites on the shaved dorsal skin. 48 hours later, aminoquinolinone derivatives (test compounds) suspended in 0.5% methylcellulose (MC) were given orally at a dose of 100 mg/kg to the animals. 1 hour after administration of Test compounds, the animals were induced anaphylaxis by injection of saline (1 ml) dissolving 1 mg of trinitrophenylated ascaris (TNP-As) and 5 mg of Evans Blue into the tail vein of the animals. 30 minutes after induction of anaphylaxis, animals were anesthetized by ether and killed by bleeding, and were flayed dorsal skin. The leakage of dye was assessed by measuring the diameter (mean of shortest and longest diameter) of the blue spot on the inside surface of dorsal skin. As vehicle control group, only 0.5% MC solution was administered orally, and as positive control group, Tranilast suspended in 0.5% MC were administered orally at a dose of 200 mg/kg to the animals with the same method as the test compounds groups, The inhibition (%) of PCA reaction was calculated according to equation 1 and the result was shown in Table 1. Each experimental group consisted of 5 rats.
In the conditions of this experiment, it was considered that the compound, which inhibited PCA reaction by over forty (40) percent against that in vehicle control group, was evidently effective for immediate type allergy.
Inhibition (%)=(A-B)/A×100 (Equation 1)
A: leakage of dye in vehicle control group
B: leakage of dye in test compound group or positive control group

[2] = tested on: contact dermatitis induced by picryl chloride; test: Effect on contact dermatitis induced by picryl chloride in mice; assay type: in vivo; details: for inhibition in vivo at 20 mg/kg: test compounds, 20 mg/kg p.o. 12 hours after challenge
Experimental: Effect on contact dermatitis induced by picryl chloride in mice
The delayed type hypersensitization is inhibited by steroid, but can not be effected by known anti-allergic agents. In the following, the method of the pharmacological test will be explained.
Method: Mice, shaved their abdominal skin on previous day, were immunized by applying 0.1 ml of acetone containing 7 mg of picryl chloride to the skin of the abdomen. 7 days after immunization, the thickness of the ear was measured with a dial thickness gauge, then mice were challenged by painting […] of 1% picryl chloride olive oil solution to each side skin of left ear. 24 hours after challenge, the thickness of the left ear was measured again. The compounds of the present invention (test compounds) suspended in 0.5% MC were forcibly administered orally at a dose of 20 mg/kg 12 hours after challenge. As vehicle control group, only 0.5% MC solution was administered orally, and as positive control group, Prednisolone, steroid hormone, was administered orally at a dose of 10 mg/kg and as negative control group, Tranilast was administered orally at a dose of 200 mg/kg.
Increase (%)=(A-B)/B×100 (Equation 2)
A: thickness of the ear at 24 hours after challenge
B: thickness of the ear before challenge
Inhibition (%)=(C-D)/C×100 (Equation 3)
C: The increase (%) in vehicle control group
D: The increase (%) in test compounds group, positive control group

[3] = Mus musculus, po, ear thickness at 24 hours, read-out: Inhibition (%) of increase of ear thickness

| Structure (SMILES) | inhibition in vivo at 100 mg/kg [1] [%] | inhibition in vivo at 20 mg/kg [2, 3] [%] | inhibition in vivo at 200 mg/kg ([1]; positive control Tranilast, 200 mg/kg p.o.) [%] | inhibition in vivo at 200 mg/kg ([2]; Mus musculus, po, negative control Tranilast, 200 mg/kg p.o., ear thickness at 24 hours, read-out: Inhibition (%) of increase of ear thickness) [%] | inhibition of delayed type hypersensitization (in words) ([2]; Tranilast, 200 mg/kg p.o.) |
| --- | --- | --- | --- | --- | --- |
| C=CCOc1c(O)c2ccc(NC)cc2n(C)c1=O [compound 29, 7-methylamino-3-(2-propenyloxy)-4-hydroxy-1-methyl-2(1H)-quinolinone] | 42 | 48 |  |  |  |
| CCCCCCOc1c(O)c2ccc(N(C)C)cc2n(CCCC)c1=O [compound 35, 7-dimethylamino-3-hexyloxy-4-hydroxy-1-butyl-2(1H)-quinolinone] | 45 | 46 |  |  |  |
| CCCCCCOc1c(O)c(=O)n(C)c2cc(N)ccc12 [compound 23, 7-amino-3-hydroxy-4-hexyloxy-1-methyl-2(1H)-quinolinone] | 44 | 41 |  |  |  |
| CCCCOc1c(O)c(=O)n(CCC)c2cc(N)ccc12 [compound 33, 7-amino-3-hydroxy-4-butyloxy-1-propyl-2(1H)-quinolinone] | 40 | 40 |  |  |  |
| CCCCCCCCOc1c(O)c2ccc(NC(C)=O)cc2n(C)c1=O [compound 39, 7-acetylamino-3-octyloxy-4-hydroxy-1-methyl-2(1H)-quinolinone] | 50 | 48 |  |  |  |
| COc1c(OC(C)=O)c(=O)[nH]c2cc(N)ccc12 [compound 15, 7-amino-3-acetoxy-4-methoxy-2(1H)-quinolinone] | 41 | 40 |  |  |  |
| CCCCCCCCOc1c(O)c2ccc(NC(=O)/C=C/c3ccc(O)c(OC)c3)cc2n(C)c1=O [compound 45, 7-(4-hydroxy-3-methoxycinnamoylamino)-3-octyloxy-4-hydroxy-1-methyl-2(1H)-quinolinone] | 41 | 44 |  |  |  |
| CCCCCCCCNc1ccc2c(O)c(OC)c(=O)n(C)c2c1 [compound 24, 7-octylamino-3-methoxy-4-hydroxy-1-methyl-2(1H)-quinolinone] | 46 | 44 |  |  |  |
| COc1c(O)c(=O)[nH]c2cc(N)ccc12 [compound 14, 7-amino-3-hydroxy-4-methoxy-2(1H)-quinolinone] | 44 | 38 |  |  |  |
| CNc1ccc2c(O)c(OCC=C(C)C)c(=O)n(C)c2c1 [compound 30, 7-methylamino-3-prenyloxy-4-hydroxy-1-methyl-2(1H)-quinolinone] | 44 | 52 |  |  |  |
| COc1c(OC(C)=O)c(=O)n(C)c2cc(N)ccc12 [compound 6, 7-amino-3-acetoxy-4-methoxy-1-methyl-2(1H)-quinolinone] | 46 | 43 |  |  |  |
| CCCCCCCCOc1c(O)c2ccc(NCC=C(C)C)cc2n(C)c1=O [compound 48, 7-prenylamino-3-octyloxy-4-hydroxy-1-methyl-2(1H)-quinolinone] | 50 | 53 |  |  |  |
| CNc1ccc2c(O)c(OC/C=C(\C)CCC=C(C)C)c(=O)n(C)c2c1 [compound 31, 7-methylamino-3-geranyloxy-4-hydroxy-1-methyl-2(1H)-quinolinone] | 46 | 45 |  |  |  |
| COc1ccc(/C=C/C(=O)Nc2ccccc2C(=O)O)cc1OC [Tranilast, reference compound] |  |  | 54 | 6 | did not inhibit delayed type hypersensitization |
| CCCCCCOc1c(O)c2ccc(NC(=O)/C=C/c3cc(OC)c(O)c(OC)c3)cc2n(C)c1=O [compound 43, 7-(4-hydroxy-3,5-dimethoxycinnamoylamino)-3-hexyloxy-4-hydroxy-1-methyl-2(1H)-quinolinone] | 49 | 53 |  |  |  |
| COc1c(O)c2ccc(N)cc2n(C)c1=O [compound 19, 7-amino-3-methoxy-4-hydroxy-1-methyl-2(1H)-quinolinone] | 44 | 45 |  |  |  |
| CCCCn1c(=O)c(O)c(OCC=C(C)C)c2ccc(NC)cc21 [compound 38, 7-methylamino-3-hydroxy-4-prenyloxy-1-butyl-2(1H)-quinolinone] | 40 | 37 |  |  |  |
| Cn1c(=O)c(O)c(O)c2ccc(N)cc21 [compound 8, 7-amino-3,4-dihydroxy-1-methyl-2(1H)-quinolinone] | 48 | 41 |  |  |  |
| CCCCCCOc1c(O)c2ccc(N(C)C)cc2n(C)c1=O [compound 25, 7-dimethylamino-3-hexyloxy-4-hydroxy-1-methyl-2(1H)-quinolinone] | 47 | 48 |  |  |  |
| CNc1ccc2c(OC)c(OC(C)=O)c(=O)n(C)c2c1 [compound 9] | 45 | 43 |  |  |  |
| CCCCCCCCOc1c(O)c2ccc(N)cc2n(C)c1=O [compound 22, 7-amino-3-octyloxy-4-hydroxy-1-methyl-2(1H)-quinolinone] | 57 | 55 |  |  |  |
| CCCCCCOc1c(O)c(=O)n(C)c2cc(NCCCC)ccc12 [compound 28, 7-butylamino-3-hydroxy-4-hexyloxy-1-methyl-2(1H)-quinolinone] | 42 | 37 |  |  |  |
| CCCCn1c(=O)c(O)c(OC)c2ccc(N(C)C)cc21 [compound 36, 7-dimethylamino-3-hydroxy-4-methoxy-1-butyl-2(1H)-quinolinone] | 41 | 40 |  |  |  |
| CCCCNc1ccc2c(OC)c(O)c(=O)[nH]c2c1 [compound 17, 7-butylamino-3-hydroxy-4-methoxy-2(1H)-quinolinone] | 45 | 43 |  |  |  |
| CCCCCCCCOc1c(O)c2ccc(NCc3ccccc3)cc2n(C)c1=O [compound 47, 7-benzylamino-3-octyloxy-4-hydroxy-1-methyl-2(1H)-quinolinone] | 40 | 48 |  |  |  |
| CCCCCCCCOc1c(O)c2ccc(NC(=O)/C=C/c3ccc(OC(C)=O)c(OC)c3)cc2n(C)c1=O [compound 44, 7-(4-acetoxy-3-methoxycinnamoylamino)-3-octyloxy-4-hydroxy-1-methyl-2(1H)-quinolinone] | 50 | 53 |  |  |  |
| CCCCCCCCOc1c(O)c(=O)n(C)c2cc(NC)ccc12 [compound 26, 7-methylamino-3-hydroxy-4-octyloxy-1-methyl-2(1H)-quinolinone] | 41 | 39 |  |  |  |
| CCCCNc1ccc2c(OC)c(OC(C)=O)c(=O)[nH]c2c1 [compound 16, 7-butylamino-3-acetoxy-4-methoxy-2(1H)-quinolinone] | 42 | 36 |  |  |  |
| CCOc1c(OC(C)=O)c(=O)n(C)c2cc(N)ccc12 [compound 20, 7-amino-3-acetoxy-4-ethoxy-1-methyl-2(1H)-quinolinone] | 41 | 43 |  |  |  |
| CCCCCCCCCCOc1c(O)c(=O)n(CCC)c2cc(N)ccc12 [compound 34, 7-amino-3-hydroxy-4-decyloxy-1-propyl-2(1H)-quinolinone] | 40 | 37 |  |  |  |
